In ChEMBL document CHEMBL5728513, “Substituted isoindolin-1-ones and 2,3-dihydro-1h-pyrrolo[3,4-c]pyridin-1-ones as hpk1 antagonists” (2021):

molecular target: Mitogen-activated protein kinase kinase kinase kinase 1 (Homo sapiens, UniProt Q92918); test: Biochemical Enzyme Assay: HPK1 biochemical enzyme assay: HPK1 enzyme inhibition was measured using a microfluidic mobility shift assay. […] Test compounds were titrated in ten point curves (top final assay concentration […]), and preincubated with enzyme/substrate mix for 30 min prior to initiation of the reaction by addition of ATP (1 mM final concentration) and substrate (1 Î¼M final concentration; Carna Biosciences) diluted in assay buffer supplemented by MgCl2 (final assay concentration of 5 mM). Following 60 min incubation at RT, the reaction was terminated by addition of 60 µl/well termination buffer (Carna Biosciences) and signal determination using a Caliper EZ Reader (Perkin Elmer, UK).
Sequence (Q92918 whole entry): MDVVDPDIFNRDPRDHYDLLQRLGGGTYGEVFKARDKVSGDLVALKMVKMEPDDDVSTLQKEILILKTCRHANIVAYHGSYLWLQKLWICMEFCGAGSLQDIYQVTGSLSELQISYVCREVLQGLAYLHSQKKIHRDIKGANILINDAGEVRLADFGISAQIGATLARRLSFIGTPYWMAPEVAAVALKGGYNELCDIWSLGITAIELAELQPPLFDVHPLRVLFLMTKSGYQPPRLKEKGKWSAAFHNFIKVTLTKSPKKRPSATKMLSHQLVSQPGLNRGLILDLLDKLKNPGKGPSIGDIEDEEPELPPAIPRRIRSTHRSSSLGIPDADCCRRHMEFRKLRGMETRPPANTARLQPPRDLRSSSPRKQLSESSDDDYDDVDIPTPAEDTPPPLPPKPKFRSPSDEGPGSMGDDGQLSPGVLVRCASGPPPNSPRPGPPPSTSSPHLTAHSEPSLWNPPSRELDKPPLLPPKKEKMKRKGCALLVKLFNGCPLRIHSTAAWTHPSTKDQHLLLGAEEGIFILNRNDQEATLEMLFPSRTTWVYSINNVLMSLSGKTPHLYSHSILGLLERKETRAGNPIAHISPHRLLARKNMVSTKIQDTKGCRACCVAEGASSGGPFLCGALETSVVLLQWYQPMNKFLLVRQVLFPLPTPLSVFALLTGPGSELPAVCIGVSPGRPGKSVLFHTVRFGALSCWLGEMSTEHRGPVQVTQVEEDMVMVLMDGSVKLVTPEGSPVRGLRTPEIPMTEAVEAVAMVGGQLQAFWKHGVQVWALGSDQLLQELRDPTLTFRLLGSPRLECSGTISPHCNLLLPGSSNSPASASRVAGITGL

IC50 | SMILES
< 100 nM | CO[C@H]1CCC(c2ccc(Nc3ccc(-c4cnc5cc(F)ccn45)c4c3C(=O)NC4)nc2CN(C)C)C1 (stereo partly drawn)
in the range around 550 nM | CN(C)Cc1cc(Nc2ccc(-c3cnc4cc(F)ccn34)c3c2C(=O)NC3)ncc1C1(O)CCOCC1
< 100 nM | CCN(C)Cc1nc(Nc2ccc(-c3cnc4cc(F)ccn34)c3c2C(=O)NC3)ccc1[C@@H]1CCOC1
